Laboratory results from US20260226493A1, “HERBICIDE RESISTANT PLANTS” (SYNGENTA CROP PROTECTION AG, priority 2023, published 2026).

Tests used:
Experiment in all cases: BIO3-BIO1 mutant enzyme activity in the presence of herbicide, percentage inhibition (fluorometric DAPA assay)
Type in all cases: biochemical
Conditions in all cases: read-out: percentage inhibition
[1] = target: T1, Arabidopsis thaliana BIO3-BIO1 (BioDA) mutants (Arabidopsis thaliana, UniProt B0F481, P421A)
T1 construct: with the predicted N-terminal mitochondrial transit peptide removed; 6xHis-tag (N); thrombin cleavage site (N); made in house; host or cells: E. coli BL21 (DE3) bioA
T1 sequence (B0F481 23-833 P421A): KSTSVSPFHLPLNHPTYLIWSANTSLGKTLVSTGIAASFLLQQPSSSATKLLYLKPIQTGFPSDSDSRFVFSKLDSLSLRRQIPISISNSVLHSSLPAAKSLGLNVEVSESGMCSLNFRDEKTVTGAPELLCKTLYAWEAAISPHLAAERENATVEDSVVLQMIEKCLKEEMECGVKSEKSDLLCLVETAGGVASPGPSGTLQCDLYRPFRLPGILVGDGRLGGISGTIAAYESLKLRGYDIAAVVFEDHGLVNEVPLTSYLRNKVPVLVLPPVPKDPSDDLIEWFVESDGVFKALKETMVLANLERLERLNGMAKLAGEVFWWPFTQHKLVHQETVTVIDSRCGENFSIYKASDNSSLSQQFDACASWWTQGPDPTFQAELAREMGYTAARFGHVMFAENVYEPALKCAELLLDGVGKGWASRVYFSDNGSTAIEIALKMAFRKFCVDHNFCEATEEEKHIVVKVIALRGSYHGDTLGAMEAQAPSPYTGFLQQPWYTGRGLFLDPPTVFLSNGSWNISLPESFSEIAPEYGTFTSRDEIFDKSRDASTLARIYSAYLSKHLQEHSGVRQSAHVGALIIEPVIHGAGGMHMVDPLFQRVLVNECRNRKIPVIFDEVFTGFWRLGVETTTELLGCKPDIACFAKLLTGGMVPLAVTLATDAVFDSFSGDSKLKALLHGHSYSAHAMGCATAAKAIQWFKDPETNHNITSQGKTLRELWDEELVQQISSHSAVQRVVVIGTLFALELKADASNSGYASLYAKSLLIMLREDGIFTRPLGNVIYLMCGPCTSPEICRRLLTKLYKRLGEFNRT
From the text: (§1) A pet-24 plasmid containing a DNA sequence encoding each identified variant mutant of BIO3-BIO1 derived from Arabidopsis thaliana from example 5 above, as shown in Table 13 below and as shown in full in SEQ ID NOs: 15 to 155, codon-optimised for expression in E. coli, with an N-terminal 6×His-tag and thrombin cleavage site and under control of a T7 promoter, and was synthesised by Twist Bioscience, in a similar manner to SEQ ID NO:311. These plasmids were then expressed in E. coli BL21 (DE3) bioA with 50 μg/mL kanamycin and 25 μg/mL chloramphenicol selection. Overnight cultures grown at 37° C. were used to inoculate 8×500 mL AIM in shake flasks at a ratio of 1:100. Cultures were grown at 37° C., 200 rpm for 3.5 hours and then overnight at 20° C. Cells were harvested by centrifugation for 30 minutes at 10 000 g. Cells were stored at −80° C. until extraction. 30 g of cell pellet from was thawed in 120 mL of IMAC buffer A (20 mM HEPES pH7.5, 25 mM imidazole, 500 mM sodium chloride, 0.15 mM pyridoxal phosphate, 0.5 mM TCEP, 1× complete Protease Inhibitor Tablet (Roche)). The resuspension was passed through a cell disrupter at 18 000 PSI and centrifuged at 50 000 g for 25 minutes at 4° C. The His-tagged BIO3-BIO1 protein was purified from the extract supernatant on an AKTA avant chromatography system (Cytiva) using a HisTrap FF column and eluted in IMAC buffer B ((20 mM HEPES pH7.5, 500 mM imidazole, 500 mM sodium chloride, 0.15 mM pyridoxal phosphate, 0.5 mM TCEP) followed by SEC using a HiLoad 26/60 Superdex200 column in SEC buffer (25 mM HEPES pH7.5, 150 mM sodium chloride, 0.15 mM pyridoxal phosphate, 0.5 mM TCEP). Protein concentration was measured and calculated using the absorbance at 280 nm. Extracts were diluted 1 in 4 and 10 uL was analysed by SDS PAGE.
(§2) To measure BIO3-BIO1 mutant enzyme activity in the presence of herbicide, herbicides were incubated with 20 μL of enzyme mix (100 mM EPPS pH 8.6, 0.1 mM pyridoxal phosphate, 0.1 mg/mL BSA, 50 nM BIO3-BIO1 enzyme) for 10 minutes at 20° C. in a well of a 96-well half-area black plate, followed by the addition of 20 μL of substrate mix (final concentration of 100 mM EPPS pH 8.6, 0.1 mM pyridoxal phosphate, 0.1 mg/mL BSA, 100 μM spermidine, 20 μM KAPA, 100 mM NaCO3) and further incubation for 75 minutes at 20° C. The reaction was terminated by the addition of 50 μL of derivatisation mix (final concentration of 250 mM borate NaOH pH 9.4, 3.6 mM o-phthalaldehyde, 7 mM β-mercaptoethanol, 17% (v/v) ethanol, 3.6% (v/v) methanol). The fluorescent product produced by the reaction of DAPA with o-phthalaldehyde and 7 mM β-mercaptoethanol was measured at 470 nm after excitation at 410 nm. The percentage inhibition was calculated as the activity in the presence of one of three concentrations of each herbicide compound A to M (note that the compounds labelled as A to M are identified hereinabove in the relevant section of the description) as a percentage of the activity in DMSO (Table 12 and 13). The percentage activity versus WT was also calculated and is shown in Table 13 and 14 (NT indicates mutation not tested in table 13, note that these mutations are tested at different compound concentrations for compounds L, M and C, and the results are shown in table 14).

[2] = target: T2, Arabidopsis thaliana BIO3-BIO1 (BioDA) mutants (Arabidopsis thaliana, UniProt B0F481, W392S)
T2 construct: with the predicted N-terminal mitochondrial transit peptide removed; 6xHis-tag (N); thrombin cleavage site (N); made in house; host or cells: E. coli BL21 (DE3) bioA
T2 sequence (B0F481 23-833 W392S): as the sequence (B0F481 23-833 P421A) above, with W370S, A399P counted along it
From the text: as §1, §2

[3] = target: T3, Arabidopsis thaliana BIO3-BIO1 (BioDA) mutants (Arabidopsis thaliana, UniProt B0F481, S509Q)
T3 construct: with the predicted N-terminal mitochondrial transit peptide removed; 6xHis-tag (N); thrombin cleavage site (N); made in house; host or cells: E. coli BL21 (DE3) bioA
T3 sequence (B0F481 23-833 S509Q): as the sequence (B0F481 23-833 P421A) above, with A399P, S487Q counted along it
From the text: as §1, §2

[4] = target: T4, Arabidopsis thaliana BIO3-BIO1 (BioDA) mutants (Arabidopsis thaliana, UniProt B0F481, G513A)
T4 construct: with the predicted N-terminal mitochondrial transit peptide removed; 6xHis-tag (N); thrombin cleavage site (N); made in house; host or cells: E. coli BL21 (DE3) bioA
T4 sequence (B0F481 23-833 G513A): as the sequence (B0F481 23-833 P421A) above, with A399P, G491A counted along it
From the text: as §1, §2

[5] = target: T5, Arabidopsis thaliana BIO3-BIO1 (BioDA) mutants (Arabidopsis thaliana, UniProt B0F481, R756S)
T5 construct: with the predicted N-terminal mitochondrial transit peptide removed; 6xHis-tag (N); thrombin cleavage site (N); made in house; host or cells: E. coli BL21 (DE3) bioA
T5 sequence (B0F481 23-833 R756S): as the sequence (B0F481 23-833 P421A) above, with A399P, R734S counted along it
From the text: as §1, §2

[6] = target: T6, Arabidopsis thaliana BIO3-BIO1 (BioDA) mutants (Arabidopsis thaliana, UniProt B0F481, A609C)
T6 construct: with the predicted N-terminal mitochondrial transit peptide removed; 6xHis-tag (N); thrombin cleavage site (N); made in house; host or cells: E. coli BL21 (DE3) bioA
T6 sequence (B0F481 23-833 A609C): as the sequence (B0F481 23-833 P421A) above, with A399P, A587C counted along it
From the text: as §1, §2

[7] = target: T7, Arabidopsis thaliana BIO3-BIO1 (BioDA) mutants (Arabidopsis thaliana, UniProt B0F481, Y511V)
T7 construct: with the predicted N-terminal mitochondrial transit peptide removed; 6xHis-tag (N); thrombin cleavage site (N); made in house; host or cells: E. coli BL21 (DE3) bioA
T7 sequence (B0F481 23-833 Y511V): as the sequence (B0F481 23-833 P421A) above, with A399P, Y489V counted along it
From the text: as §1, §2

[8] = target: T8, Arabidopsis thaliana BIO3-BIO1 (BioDA) mutants (Arabidopsis thaliana, UniProt B0F481, R756K)
T8 construct: with the predicted N-terminal mitochondrial transit peptide removed; 6xHis-tag (N); thrombin cleavage site (N); made in house; host or cells: E. coli BL21 (DE3) bioA
T8 sequence (B0F481 23-833 R756K): as the sequence (B0F481 23-833 P421A) above, with A399P, R734K counted along it
From the text: as §1, §2

[9] = target: T9, Arabidopsis thaliana BIO3-BIO1 (BioDA) mutants (Arabidopsis thaliana, UniProt B0F481, Q517I)
T9 construct: with the predicted N-terminal mitochondrial transit peptide removed; 6xHis-tag (N); thrombin cleavage site (N); made in house; host or cells: E. coli BL21 (DE3) bioA
T9 sequence (B0F481 23-833 Q517I): as the sequence (B0F481 23-833 P421A) above, with A399P, Q495I counted along it
From the text: as §1, §2

[10] = target: T10, Arabidopsis thaliana BIO3-BIO1 (BioDA) mutants (Arabidopsis thaliana, UniProt B0F481, P508L)
T10 construct: with the predicted N-terminal mitochondrial transit peptide removed; 6xHis-tag (N); thrombin cleavage site (N); made in house; host or cells: E. coli BL21 (DE3) bioA
T10 sequence (B0F481 23-833 P508L): as the sequence (B0F481 23-833 P421A) above, with A399P, P486L counted along it
From the text: as §1, §2

[11] = target: T11, Arabidopsis thaliana BIO3-BIO1 (BioDA) mutants (Arabidopsis thaliana, UniProt B0F481, W392C)
T11 construct: with the predicted N-terminal mitochondrial transit peptide removed; 6xHis-tag (N); thrombin cleavage site (N); made in house; host or cells: E. coli BL21 (DE3) bioA
T11 sequence (B0F481 23-833 W392C): as the sequence (B0F481 23-833 P421A) above, with W370C, A399P counted along it
From the text: as §1, §2

[12] = target: T12, Arabidopsis thaliana BIO3-BIO1 (BioDA) mutants (Arabidopsis thaliana, UniProt B0F481, F348T)
T12 construct: with the predicted N-terminal mitochondrial transit peptide removed; 6xHis-tag (N); thrombin cleavage site (N); made in house; host or cells: E. coli BL21 (DE3) bioA
T12 sequence (B0F481 23-833 F348T): as the sequence (B0F481 23-833 P421A) above, with F326T, A399P counted along it
From the text: as §1, §2

SMILES	inhibition at 1 µM [1] [%]	inhibition at 1 µM [2] [%]	inhibition at 1 µM [3] [%]	inhibition at 1 µM [4] [%]	inhibition at 1 µM [5] [%]	inhibition at 1 µM [6] [%]	inhibition at 1 µM [7] [%]	inhibition at 1 µM [8] [%]	inhibition at 1 µM [9] [%]	inhibition at 1 µM [10] [%]	inhibition at 1 µM [11] [%]	inhibition at 1 µM [12] [%]	inhibition at 0.2 µM [1] [%]	inhibition at 5 µM [1] [%]	inhibition at 0.2 µM [2] [%]	inhibition at 5 µM [2] [%]	inhibition at 0.2 µM [3] [%]	inhibition at 5 µM [3] [%]	inhibition at 0.2 µM [4] [%]	inhibition at 5 µM [4] [%]	other results
CCOC(=O)c1nn(-c2ccc3c(c2)OC(F)(F)C(F)(F)O3)c2cccc(C(C)=O)c2c1=O [Compound A, ethyl 5-acetyl-4-oxo-1-(2,2,3,3-tetrafluoro-1,4-benzodioxin-6-yl)cinnoline-3-carboxylate]	0	23	8	64	67	18	45	33	28	34	42	0	–	–	–	–	–	–	–	–	–
CCn1c(-c2ccc(Cl)c(Cl)c2)c(C(=O)O)c(=O)c2cc(F)ccc21 [Compound M, 2-(3,4-dichlorophenyl)-1-ethyl-6-fluoro-4-oxo-quinoline-3-carboxylic acid]	11	0	76	58	54	47	88	36	44	55	17	2	15	17	0	0	23	96	25	90	inhibition at 0.2 µM [5]: 23%; inhibition at 5 µM [5]: 78%; inhibition at 0.2 µM [6]: 10%; inhibition at 5 µM [6]: 78%; inhibition at 0.2 µM [7]: 33%; inhibition at 5 µM [7]: 99%; inhibition at 0.2 µM [8]: 10%; inhibition at 5 µM [8]: 71%; inhibition at 0.2 µM [9]: 19%; inhibition at 5 µM [9]: 72%; inhibition at 0.2 µM [10]: 18%; inhibition at 5 µM [10]: 82%; inhibition at 0.2 µM [11]: 0%; inhibition at 5 µM [11]: 27%; inhibition at 0.2 µM [12]: 15%; inhibition at 5 µM [12]: 7%
CCn1c(Cn2ccc(C(F)(F)F)n2)cc(=O)c(C(=O)O)c1-c1ccc(Cl)c(Cl)c1 [Compound L, 2-(3,4-dichlorophenyl)-1-ethyl-4-oxo-6-[[3-(trifluoromethyl)pyrazol-1-yl]methyl]pyridine-3-carboxylic acid]	–	–	–	–	–	–	–	–	–	–	–	–	–	–	–	–	–	–	–	–	inhibition at 0.01 µM [1]: 15%; inhibition at 0.075 µM [1]: 16%; inhibition at 0.5 µM [1]: 21%; inhibition at 0.01 µM [4]: 0%; inhibition at 0.075 µM [4]: 57%; inhibition at 0.5 µM [4]: 90%; inhibition at 0.01 µM [6]: 4%; inhibition at 0.075 µM [6]: 22%; inhibition at 0.5 µM [6]: 30%; inhibition at 0.01 µM [10]: 16%; inhibition at 0.075 µM [10]: 48%; inhibition at 0.5 µM [10]: 80%; inhibition at 0.01 µM [12]: 1%; inhibition at 0.075 µM [12]: 3%; inhibition at 0.5 µM [12]: 7%
CCn1c(C)c(-c2ccc(F)cc2F)c(=O)c(C(=O)O)c1-c1ccc(Cl)c(Cl)c1 [Compound C, 2-(3,4-dichlorophenyl)-5-(2,4-difluorophenyl)-1-ethyl-6-methyl-4-oxo-pyridine-3-carboxylic acid]	16	0	82	63	57	73	94	42	58	80	55	4	16	35	0	20	23	99	10	88	inhibition at 0.2 µM [5]: 24%; inhibition at 5 µM [5]: 83%; inhibition at 0.2 µM [6]: 29%; inhibition at 5 µM [6]: 94%; inhibition at 0.2 µM [7]: 28%; inhibition at 5 µM [7]: 97%; inhibition at 0.2 µM [8]: 6%; inhibition at 5 µM [8]: 80%; inhibition at 0.2 µM [9]: 25%; inhibition at 5 µM [9]: 82%; inhibition at 0.2 µM [10]: 37%; inhibition at 5 µM [10]: 92%; inhibition at 0.2 µM [11]: 20%; inhibition at 5 µM [11]: 87%; inhibition at 0.2 µM [12]: 0%; inhibition at 5 µM [12]: 0%
